Experimental data reported in US11254668B2, “Pyrazolo[1,5-A]pyrazin-4-yl and related derivatives” (Pfizer Inc., priority 2017, dated 2022).

How the values were obtained:
Type in all cases: biochemical
[1] = target: TYK2 (Homo sapiens (Human), UniProt P29597); assay: JAK Caliper Enzyme Assay at 1 mM ATP, TYK2
Method in brief: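 Recombinant human kinase domains phosphorylate a fluorescent synthetic peptide at 1 mM ATP and room temperature, with enzyme level and time tuned to 20–30% conversion before an EDTA stop. Microfluidic mobility-shift separation gives percent product from peak heights. Percent effect against plate controls (DMSO baseline) is plotted versus compound concentration.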

[2] = target: JAK1 (Homo sapiens (Human), UniProt P23458); assay: JAK Caliper Enzyme Assay at 1 mM ATP, JAK1
Method in brief: (§1)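 IC50 (nM) derived from percent conversion of fluorescently labelled peptide, measured by Caliper LabChip mobility-shift separation after EDTA stop. Each JAK family kinase domain (human, recombinant) run at 1 mM ATP and room temperature, conditions set to 20-30% product; DMSO wells define uninhibited baseline.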

[3] = target: JAK3 (Homo sapiens (Human), UniProt P52333); assay: JAK Caliper Enzyme Assay at 1 mM ATP, JAK3
Method in brief: as §1

[4] = target: JAK2 (Homo sapiens (Human), UniProt O60674); assay: JAK Caliper Enzyme Assay at 1 mM ATP, JAK2
Description: Compounds of the invention were evaluated by in vitro methods to determine their respective ability to inhibit the JAK kinases (TYK2, JAK1, JAK2, JAK3).
The human JAK inhibitory activity was determined by using a microfluidic assay to monitor phosphorylation of a synthetic peptide by the recombinant human kinase domain of each of the four members of the JAK family, JAK1, JAK2, JAK3 and TYK2. […] Each assay condition was optimized for enzyme concentration and room temperature incubation time to obtain a conversion rate of 20% to 30% phosphorylated peptide product. Reactions were terminated by the addition of stop buffer containing EDTA. Utilizing the LabChip 3000 mobility shift technology (Caliper Life Science), each assay reaction was sampled to determine the level of phosphorylation. This technology is separation-based, allowing direct detection of fluorescently labeled substrates and products. Separations are controlled by a combination of vacuum pressure and electric field strength optimized for each peptide substrate.
JAK Caliper Enzyme Assay at 1mM ATP
Compounds were added to a 384-well plate.
The data was collected using the HTS Well Analyzer software from Caliper Life Sciences. The data output for data analysis is the percent product converted calculated on peak height (Equation 1). % product converted=100*((product)/(product+substrate)) Equation 1: […]
The percent effect at each compound concentration was calculated based on the positive and negative control well contained within each assay plate (Equation 2). […] The negative control wells contained DMSO alone (at the same concentration as the compound wells) that was used to set the baseline activity in the assay (i.e., uninhibited JAK1, JAK2, JAK3 or TYK2). % effect=100*([…](positive control-negative control)) Equation 2: […]
The percent effect was plotted against the compound concentration compound.

JAK2, sequence (O60674 849-1124): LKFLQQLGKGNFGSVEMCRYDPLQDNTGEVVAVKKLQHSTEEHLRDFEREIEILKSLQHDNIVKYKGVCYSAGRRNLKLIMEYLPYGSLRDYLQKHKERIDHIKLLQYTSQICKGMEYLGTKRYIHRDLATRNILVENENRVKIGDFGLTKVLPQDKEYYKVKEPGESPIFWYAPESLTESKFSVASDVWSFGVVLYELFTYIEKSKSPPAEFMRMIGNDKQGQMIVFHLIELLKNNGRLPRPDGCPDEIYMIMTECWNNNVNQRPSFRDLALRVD
JAK1, sequence (P23458 875-1153): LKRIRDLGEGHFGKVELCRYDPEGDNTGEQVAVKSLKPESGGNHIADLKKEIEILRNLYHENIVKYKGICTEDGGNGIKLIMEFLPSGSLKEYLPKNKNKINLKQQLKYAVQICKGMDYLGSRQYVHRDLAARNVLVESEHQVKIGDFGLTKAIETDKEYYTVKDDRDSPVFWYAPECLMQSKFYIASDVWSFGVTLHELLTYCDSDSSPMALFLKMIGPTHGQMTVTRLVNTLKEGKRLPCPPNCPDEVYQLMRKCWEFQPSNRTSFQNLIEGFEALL
TYK2, sequence (P29597 897-1176): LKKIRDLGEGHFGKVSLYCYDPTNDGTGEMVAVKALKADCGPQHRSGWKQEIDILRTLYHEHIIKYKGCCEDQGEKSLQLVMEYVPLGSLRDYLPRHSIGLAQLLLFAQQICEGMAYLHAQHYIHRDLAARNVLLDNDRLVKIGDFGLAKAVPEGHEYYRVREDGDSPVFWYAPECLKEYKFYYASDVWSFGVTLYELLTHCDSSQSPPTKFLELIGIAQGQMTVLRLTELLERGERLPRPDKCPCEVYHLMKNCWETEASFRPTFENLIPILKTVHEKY
JAK3, sequence (P52333 822-1111): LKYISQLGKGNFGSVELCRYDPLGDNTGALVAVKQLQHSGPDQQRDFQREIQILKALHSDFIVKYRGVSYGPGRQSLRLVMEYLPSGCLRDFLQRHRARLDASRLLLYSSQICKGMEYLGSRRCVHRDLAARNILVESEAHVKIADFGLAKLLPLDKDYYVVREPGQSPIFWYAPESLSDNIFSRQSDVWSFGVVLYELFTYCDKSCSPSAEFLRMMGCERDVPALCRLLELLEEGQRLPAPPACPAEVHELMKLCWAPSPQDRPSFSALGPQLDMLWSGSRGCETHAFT

C[C@]1(C#N)C[C@@](CC#N)(n2ccc(-c3nc(-c4cc[nH]n4)cc4ncccc34)n2)C1 [Example 35, cis-3-(cyanomethyl)-1-methyl-3-{3-[7-(1H-pyrazol-3-yl)-1,6-naphthyridin-5-yl]-1H-pyrazol-1-yl}cyclobutanecarbonitrile]
IC50 [1]: 44 nM
IC50 [2]: 569 nM
IC50 [3]: > 10000 nM
IC50 [4]: 339 nM

C[C@]1(C#N)C[C@](CC#N)(n2ccc(-c3nc(-c4cc[nH]n4)cc4ncccc34)n2)C1 [Example 36, trans-3-(cyanomethyl)-1-methyl-3-{3-[7-(1H-pyrazol-3-yl)-1,6-naphthyridin-5-yl]-1H-pyrazol-1-yl}cyclobutanecarbonitrile]
IC50 [1]: 1060 nM
IC50 [2]: 7100 nM
IC50 [3]: > 10000 nM
IC50 [4]: 5740 nM

N#CCC1(n2ccc(-c3nc(-c4cc[nH]n4)cc4ncccc34)n2)CC2(COC2)C1 [Example 37, (6-{3-[7-(1H-pyrazol-3-yl)-1,6-naphthyridin-5-yl]-1H-pyrazol-1-yl}-2-oxaspiro[3.3]hept-6-yl)acetonitrile]
IC50 [1]: 369 nM
IC50 [2]: 4280 nM
IC50 [3]: > 10000 nM
IC50 [4]: 2830 nM

CC(=O)N1CC2(C1)CC(CC#N)(n1ccc(-c3nc(-c4cc[nH]n4)cc4ncccc34)n1)C2 [Example 38, (2-acetyl-6-{3-[7-(1H-pyrazol-3-yl)-1,6-naphthyridin-5-yl]-1H-pyrazol-1-yl}-2-azaspiro[3.3]hept-6-yl)acetonitrile]
IC50 [1]: 4020 nM
IC50 [2]: > 10000 nM
IC50 [3]: > 10000 nM
IC50 [4]: 5630 nM

CC(C)(O)[C@H]1C[C@](CC#N)(n2ccc(-c3nc(-c4cc[nH]n4)cc4ncccc34)n2)C1 [Example 39, [trans-3-(2-hydroxypropan-2-yl)-1-{3-[7-(1H-pyrazol-3-yl)-1,6-naphthyridin-5-yl]-1H-pyrazol-1-yl}cyclobutyl]acetonitrile]
IC50 [1]: 205 nM
IC50 [2]: 2770 nM
IC50 [3]: > 10000 nM
IC50 [4]: 2080 nM

CC(C)(O)[C@H]1C[C@@](CC#N)(n2ccc(-c3nc(-c4cc[nH]n4)cc4ncccc34)n2)C1 [Example 40, [cis-3-(2-hydroxpropan-2-yl)-1-{3-[7-(1H-pyrazol-3-yl)-1,6-naphthyridin-5-yl]-1H-pyrazol-1-yl}cyclobutyl]acetonitrile]
IC50 [1]: 730 nM
IC50 [2]: 7300 nM
IC50 [3]: > 10000 nM
IC50 [4]: 4590 nM

Cc1cc(-c2cc3ncccc3c(-c3ccn([C@]4(CC#N)C[C@@H](C#N)C4)n3)n2)n[nH]1 [Example 43, trans-3-(cyanomethyl)-3-{3-[7-(5-methyl-1H-pyrazol-3-yl)-1,6-naphthyridin-5-yl]-1H-pyrazol-1-yl}cyclobutanecarbonitrile]
IC50 [1]: 14 nM
IC50 [2]: 502 nM
IC50 [3]: > 10000 nM
IC50 [4]: 91 nM

Cc1cc(-c2cc3ncccc3c(-c3ccn([C@]4(CC#N)C[C@H](C#N)C4)n3)n2)n[nH]1 [Example 44, cis-3-(cyanomethyl)-3-{3-[7-(5-methyl-1H-pyrazol-3-yl)-1,6-naphthyridin-5-yl]-1H-pyrazol-1-yl}cyclobutanecarbonitrile]
IC50 [1]: 7 nM
IC50 [2]: 66 nM
IC50 [3]: 2880 nM
IC50 [4]: 18 nM

Cc1cc(-c2cc3ncccc3c(-c3ccn([C@]4(CC#N)C[C@](C)(C#N)C4)n3)n2)n[nH]1 [Example 45, cis-3-(cyanomethyl)-1-methyl-3-{3-[7-(5-methyl-1H-pyrazol-3-yl)-1,6-naphthyridin-5-yl]-1H-pyrazol-1-yl}cyclobutanecarbonitrile]
IC50 [1]: 33 nM
IC50 [2]: 739 nM
IC50 [3]: > 10000 nM
IC50 [4]: 125 nM

Cc1cc(-c2cc3ncccc3c(-c3ccn([C@]4(CC#N)C[C@@](C)(C#N)C4)n3)n2)n[nH]1 [Example 46, trans-3-(cyanomethyl)-1-methyl-3-{3-[7-(5-methyl-1H-pyrazol-3-yl)-1,6-naphthyridin-5-yl]-1H-pyrazol-1-yl}cyclobutanecarbonitrile]
IC50 [1]: 867 nM
IC50 [2]: 9680 nM
IC50 [3]: > 10000 nM
IC50 [4]: 2770 nM

CCN1CC(CC#N)(n2ccc(-c3nc(-c4cc(CO)[nH]n4)cc4ncccc34)n2)C1 [Example 47, [1-ethyl-3-(3-{7-[5-(hydroxymethyl)-1H-pyrazol-3-yl]-1,6-naphthyridin-5-yl}-1H-pyrazol-1-yl)azetidin-3-yl]acetonitrile]
IC50 [1]: 254 nM
IC50 [2]: 7720 nM
IC50 [3]: > 10000 nM
IC50 [4]: 1940 nM

N#CCC1(n2ccc(-c3nc(-c4cc(CO)[nH]n4)cc4ncccc34)n2)CC(C#N)C1 (stereo not drawn) [Example 48, trans-3-(cyanomethyl)-3-(3-{7-[5-(hydroxymethyl)-1H-pyrazol-3-yl]-1,6-naphthyridin-5-yl}-1H-pyrazol-1-yl)cyclobutanecarbonitrile]
IC50 [1]: 15 nM
IC50 [2]: 292 nM
IC50 [3]: > 10000 nM
IC50 [4]: 73 nM

N#CC[C@]1(n2ccc(-c3nc(-c4cc(CO)[nH]n4)cc4ncccc34)n2)C[C@@H](C#N)C1 [Example 49, cis-3-(cyanomethyl)-3-(3-{7-[5-(hydroxymethyl)-1H-pyrazol-3-yl]-1,6-naphthyridin-5-yl}-1H-pyrazol-1-yl)cyclobutanecarbonitrile]
IC50 [1]: 7 nM
IC50 [2]: 42 nM
IC50 [3]: 2320 nM
IC50 [4]: 16 nM

CO[C@H]1C[C@](CC#N)(n2ccc(-c3nc(-c4cc(CO)n[nH]4)cc4ncccc34)n2)C1 [Example 50, [trans-1-(3-{7-[3-(hydroxymethyl)-1H-pyrazol-5-yl]-1,6-naphthyridin-5-yl}-1H-pyrazol-1-yl)-3-methoxycyclobutyl]acetonitrile]
IC50 [1]: 59 nM
IC50 [2]: 2750 nM
IC50 [3]: > 10000 nM
IC50 [4]: 861 nM

CO[C@H]1C[C@@](CC#N)(n2ccc(-c3nc(-c4cc(CO)n[nH]4)cc4ncccc34)n2)C1 [Example 51, [cis-1-(3-{7-[3-(hydroxymethyl)-1H-pyrazol-5-yl]-1,6-naphthyridin-5-yl}-1H-pyrazol-1-yl)-3-methoxycyclobutyl]acetonitrile]
IC50 [1]: 45 nM
IC50 [2]: 1910 nM
IC50 [3]: > 10000 nM
IC50 [4]: 509 nM

CO[C@H]1C[C@@](CC#N)(n2ccc(-c3nc(-c4cc(N)[nH]n4)cc4ncccc34)n2)C1 [Example 52, (cis-1-{3-[7-(5-amino-1H-pyrazol-3-yl)-1,6-naphthyridin-5-yl]-1H-pyrazol-1-yl}-3-methoxycyclobutyl)acetonitrile]
IC50 [1]: 19 nM
IC50 [2]: 379 nM
IC50 [3]: > 10000 nM
IC50 [4]: 235 nM

CO[C@H]1C[C@](CC#N)(n2ccc(-c3nc(-c4cc(N)[nH]n4)cc4ncccc34)n2)C1 [Example 53, (trans-1-{3-[7-(5-amino-1H-pyrazol-3-yl)-1,6-naphthyridin-5-yl]-1H-pyrazol-1-yl}-3-methoxycyclobutyl)acetonitrile]
IC50 [1]: 26 nM
IC50 [2]: 654 nM
IC50 [3]: > 10000 nM
IC50 [4]: 396 nM

Cn1nccc1-c1cc2ncccc2c(-c2ccn(C3(CC#N)CN(CC(F)(F)F)C3)n2)n1 [Example 54, [3-{3-[7-(1-methyl-1H-pyrazol-5-yl)-1,6-naphthyridin-5-yl]-1H-pyrazol-1-yl}-1-(2,2,2-trifluoroethyl)azetidin-3-yl]acetonitrile]
IC50 [1]: 214 nM
IC50 [2]: 2300 nM
IC50 [3]: > 10000 nM
IC50 [4]: 2100 nM

Cn1ccc(-c2cc3ncccc3c(-c3ccn(C4(CC#N)CN(CC(F)(F)F)C4)n3)n2)n1 [Example 55, [3-{3-[7-(1-methyl-1H-pyrazol-3-yl)-1,6-naphthyridin-5-yl]-1H-pyrazol-1-yl}-1-(2,2,2-trifluoroethyl)azetidin-3-yl]acetonitrile]
IC50 [1]: 156 nM
IC50 [2]: 8870 nM
IC50 [3]: > 10000 nM
IC50 [4]: 2560 nM

CS(=O)(=O)N1CC(CC#N)(n2ccc(-c3nc(-c4ccn(C5COC5)n4)cc4ncccc34)n2)C1 [Example 56, [1-(methylsulfonyl)-3-(3-{7-[1-(oxetan-3-yl)-1H-pyrazol-3-yl]-1,6-naphthyridin-5-yl}-1H-pyrazol-1-yl)azetidin-3-yl]acetonitrile]
IC50 [1]: 225 nM
IC50 [2]: > 10000 nM
IC50 [3]: > 10000 nM
IC50 [4]: 1480 nM

N#CCC1(n2ccc(-c3nc(-c4ccn(C5COC5)n4)cc4ncccc34)n2)CN(CC(F)(F)F)C1 [Example 57, [3-(3-{7-[1-(oxetan-3-yl)-1H-pyrazol-3-yl]-1,6-naphthyridin-5-yl}-1H-pyrazol-1-yl)-1-(2,2,2-trifluoroethyl)azetidin-3-yl]acetonitrile]
IC50 [1]: 257 nM
IC50 [2]: > 10000 nM
IC50 [3]: > 10000 nM
IC50 [4]: 2350 nM
